The conditions of series [1]: humans, oral dose of 600 mg; cited from earlier work.
Series [2] can be described thus: Rheology (elasticity, viscosity) of concentrated HBE airway mucus, cone-and-plate rheometer. The conditions noted are these: for elasticity compared with the DTT group / viscosity compared with the DTT group: 200 mM NACA and NAC versus 20 mM DTT, all p<0.05. The arrangement: species or system human. The procedure: In the Example 1, the inventors assessed the ability of NACA to reduce the rheological properties of a concentrated (cystic fibrosis-like) mucus, making it more flowable. In this phase, NACA was compared to both a classical clinical reducing agent (N-acetylcysteine; NAC) as well as a potent laboratory reducing agent (Dithiothreitol; DTT). The studies in this phase of the project were performed at a single dose, 200 mM for the mono-thiols NACA and NAC and 20 mM for the di-thiol DTT. Methods. In this study, a single preparation of human bronchial epithelial (HBE) airway mucus at 5.4% solids (i.e., wet-to-dry ratio) was utilized as the test mucus sample. This sample was thawed on ice and split into 4 separate groups. The appropriate amount of test agent (see above) was added to each mucus sample: (1) PBS (vehicle control), (2) NACA, (3) NAC, and (4) DTT. Samples were incubated for 60 minutes at 37ÀöC prior to analysis. Note, the final mucus concentration of each sample (after test agent addition) was ˜4.9% solids. The viscoelastic (i.e., rheological) properties of each mucus preparation was made using a cone-and-plate rheometer (DH3; TA Instruments). For each study, 100 ? of sample was loaded onto the rheometer. Stress controlled sweeps (for viscous and elastic modulus determination) were performed over frequencies from 10-2-102 Hz. To assess yield stress, creep-recovery studies were performed at stresses from 0.05 to 1.5 Pa. Next, the cohesive stress of each sample (i.e., how much force it takes to tear the mucus) was obtained using a peel tester (see Button et. al, PNAS 2018). Studies here were performed at a peel rate of 1 mm/sec.

For series [3] the following is noted: while intubated; cited from earlier work.
The test system of series [4] is WT mice. The conditions noted are these: mouse, in vivo; cited from earlier work.
For series [5] the following is noted: oral, treatment periods of approximately 12-24 weeks, patients with chronic bronchitis; cited from earlier work.
The conditions of series [6]: maximum tolerated doses (20%); cited from earlier work.
For series [7] the following is noted: cited from earlier work.
The conditions of series [8]: normal airway surface, pH of 7.0-7.2; cited from earlier work.
Series [9] in a line: Cohesive strength of HBE airway mucus, peel tester. The arrangement: species or system human. The conditions noted are these: 200 mM NACA and NAC, 20 mM DTT. How it is done:
In the Example 1, the inventors assessed the ability of NACA to reduce the rheological properties of a concentrated (cystic fibrosis-like) mucus, making it more flowable. In this phase, NACA was compared to both a classical clinical reducing agent (N-acetylcysteine; NAC) as well as a potent laboratory reducing agent (Dithiothreitol; DTT). The studies in this phase of the project were performed at a single dose, 200 mM for the mono-thiols NACA and NAC and 20 mM for the di-thiol DTT.
Methods. In this study, a single preparation of human bronchial epithelial (HBE) airway mucus at 5.4% solids (i.e., wet-to-dry ratio) was utilized as the test mucus sample. This sample was thawed on ice and split into 4 separate groups. The appropriate amount of test agent (see above) was added to each mucus sample: (1) PBS (vehicle control), (2) NACA, (3) NAC, and (4) DTT. Samples were incubated for 60 minutes at 37ÀöC prior to analysis. Note, the final mucus concentration of each sample (after test agent addition) was ˜4.9% solids.
The viscoelastic (i.e., rheological) properties of each mucus preparation was made using a cone-and-plate rheometer (DH3; TA Instruments). For each study, 100 ? of sample was loaded onto the rheometer. Stress controlled sweeps (for viscous and elastic modulus determination) were performed over frequencies from 10-2-102 Hz. […]

In series [10] the test system is mucins. The note with it: 20 mM; cited from earlier work.
Series [11] has as its target T1, glutamate cysteine ligase (GCL, EC 6.3.2.2) (Homo sapiens, UniProt P48506).
T1 sequence (P48506 1-637): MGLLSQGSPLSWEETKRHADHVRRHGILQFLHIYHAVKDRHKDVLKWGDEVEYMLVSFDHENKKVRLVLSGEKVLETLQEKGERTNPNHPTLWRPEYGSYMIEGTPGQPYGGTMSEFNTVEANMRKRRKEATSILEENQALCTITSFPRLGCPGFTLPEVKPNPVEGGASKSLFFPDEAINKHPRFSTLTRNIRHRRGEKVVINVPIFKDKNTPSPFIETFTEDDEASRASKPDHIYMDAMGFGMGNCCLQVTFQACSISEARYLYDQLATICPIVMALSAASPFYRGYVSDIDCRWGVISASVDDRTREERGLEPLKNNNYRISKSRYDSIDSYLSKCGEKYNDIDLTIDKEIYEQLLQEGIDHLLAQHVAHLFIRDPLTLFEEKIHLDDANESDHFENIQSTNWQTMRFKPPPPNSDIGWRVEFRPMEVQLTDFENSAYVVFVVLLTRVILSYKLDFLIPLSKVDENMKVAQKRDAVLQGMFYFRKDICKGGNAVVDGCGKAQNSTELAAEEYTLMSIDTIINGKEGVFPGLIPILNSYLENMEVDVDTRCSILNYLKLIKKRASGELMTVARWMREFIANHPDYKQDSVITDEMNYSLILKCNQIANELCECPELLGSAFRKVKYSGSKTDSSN
T1 sequence (P48507 1-274 partner): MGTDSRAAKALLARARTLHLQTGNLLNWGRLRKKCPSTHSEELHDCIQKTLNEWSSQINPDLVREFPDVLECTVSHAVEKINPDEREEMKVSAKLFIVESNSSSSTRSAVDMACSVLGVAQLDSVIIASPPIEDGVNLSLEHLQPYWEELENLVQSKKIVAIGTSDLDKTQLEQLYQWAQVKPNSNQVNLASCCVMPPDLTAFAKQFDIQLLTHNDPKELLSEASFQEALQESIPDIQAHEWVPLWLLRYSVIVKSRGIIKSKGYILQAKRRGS
The note with it: read-out: Km of GCL for substrate; cited from earlier work.

`CC(=O)N[C@@H](CS)C(=O)O` [NAC, N-acetyl-L-cysteine]: the “time after administration at which no NAC is detectable” value in series [1] was 10 to 12 h. For the same molecule, in series [2], the “elasticity compared with the DTT group” value is given as “significantly less than the DTT group” and the “viscosity compared with the DTT group” value was “significantly less than the DTT group”. Besides, the “efficacy for atelectasis/mucus plugging” value in series [3] is recorded as “ineffective”. In series [4], the “airway toxicity in WT mice” value was “induced epithelial cell damage and acute neutrophilic responses”. For the same molecule, in series [5], the “risk of adverse effects compared with placebo” value was “without increasing the risk of adverse effects”, the “risk of exacerbations compared with placebo” value is on record as “reduces the risk of exacerbations” and the “symptoms compared with placebo” value was “improves symptoms”. In addition, in [6], the “mucus reduction in CF subjects” value is on record as “did not produce mucus reduction”. Further, in [7] (high concentrations, delivered topically via bronchoscopy, subjects with CF or tracheostomies), the “removal of mucus plugs” value is given as “could remove mucus plugs”. In addition, the “lung function following inhalation treatment” value in series [7] (inhalation, high NAC concentrations (20%, 1,200 mOsm) aerosolized) is reported as “modest improvements in lung function”. In series [8], the “fraction in the inactive protonated form” value is reported as 99%.

Turning to `CC(=O)N[C@@H](CS)C(N)=O`, in series [9] (peel rate 1 mm/sec), the “reduction of cohesive strength of mucus” value is “very effective”. Further, in series [2], the “elasticity compared with the DTT group” value is given as “significantly less than the DTT group” and the “viscosity compared with the DTT group” value is given as “significantly less than the DTT group”. For the same molecule, in series [2] (200 mM dose), the “elasticity and viscosity, NACA compared with NAC” value is “no significant difference”; the “reducing the viscoelasticity of mucus” value is on record as “very effective”.

As to `O[C@H](CS)[C@H](O)CS` (racemic) [DTT, Dithiothreitol], the “cohesive strength, comparison between test agents” value in series [9] is “slightly better than NAC and NACA”. Also, in series [10], the reduction of mucins entry is given as “fully reduce mucins”.

As to `N[C@@H](CS)C(=O)O` [cysteine, L-cysteine], the Michaelis constant (Km) in series [11] is 100 to 300 µM.

B1: Dornasealfa: mucoactive agent reviewed for adults with acute lung conditions (protein, UniProt P24855 23-282, looked up)
Deoxyribonuclease-1: LKIAAFNIQTFGETKMSNATLVSYIVQILSRYDIALVQEVRDSHLTAVGKLLDNLNQDAPDTYHYVVSEPLGRNSYKERYLFVYRPDQVSAVDSYYYDDGCEPCGNDTFNREPAIVRFFSRFTEVREFAIVPLHAAPGDAVAEIDALYDVYLDVQEKWGLEDVMLMGDFNAGCSYVRPSQWSSIRLWTSPTFQWLIPDSADTTATPTHCAYDRIVVAGMLLRGAVVPDSALPFNFQAAYGLSDQLAQAISDHYPVEVMLK
For B1, in [3], the “efficacy for atelectasis/mucus plugging” value is “ineffective”.

A word on the Km: it is the concentration of substrate that gives half-maximal velocity.
